From ChEMBL document CHEMBL1153552, “Comparative in vitro pharmacodynamics of caspofungin, micafungin, and anidulafungin against germinated and nongerminated Aspergillus conidia” (2008)
Active and inactive are the calls of the source. No cut-off for these calls is given here.

Tests used:
Aspergillus fumigatus [1] = test: Antifungal activity against germinated Aspergillus fumigatus assessed as absence of visual fungal growth at 128 ug/mL; type: functional, organism-based
Aspergillus fumigatus [2] = test: Effect on Aspergillus fumigatus metabolic activity assessed number of twofold drug dilutions required for germinated fungal metabolic activity to nongerminated fungal metabolic activity; type: functional
Aspergillus fumigatus [3] = test: Antifungal activity against germinated Aspergillus fumigatus assessed as lowest drug concentration that produced short, stubby and highly branched hyphae after 48 hrs by microscopic analysis; type: functional; conditions: read-out: MEC
Aspergillus terreus [4] = test: Induction of maximal metabolic inhibition in nongerminated Aspergillus terreus assessed as minimal metabolic activity Ymin after 2 hrs by XTT assay; type: functional; parameters: scale not given: the % may be the effect or the level left
Aspergillus flavus [5] = test: Antifungal activity against nongerminated Aspergillus flavus assessed as lowest drug concentration that produced short, stubby and highly branched hyphae after 48 hrs by microscopic analysis; type: functional; conditions: read-out: MEC
Aspergillus fumigatus [6] = test: Decrease in germinated Aspergillus fumigatus metabolism assessed as metabolic activity at 128 ug/mL after 48 hrs by XTT assay; type: functional; parameters: scale not given: the % may be the effect or the level left
Aspergillus fumigatus [7] = test: Antifungal activity against nongerminated Aspergillus fumigatus assessed as absence of visual fungal growth at 128 ug/mL; type: functional, organism-based
Aspergillus fumigatus [8] = test: Induction of maximal metabolic inhibition in nongerminated Aspergillus fumigatus assessed as minimal metabolic activity Ymin after 2 hrs by XTT assay; type: functional; parameters: scale not given: the % may be the effect or the level left
Aspergillus fumigatus [9] = test: Decrease in germinated Aspergillus fumigatus metabolism assessed as metabolic activity at 64 ug/mL after 48 hrs by XTT assay; type: functional; parameters: scale not given: the % may be the effect or the level left
Aspergillus flavus [10] = test: Antifungal activity against nongerminated Aspergillus flavus assessed as absence of visual fungal growth at 128 ug/mL; type: functional, organism-based
Aspergillus terreus [11] = test: Decrease in nongerminated Aspergillus terreus metabolism assessed as metabolic activity at 64 ug/mL after 48 hrs by XTT assay; type: functional; parameters: scale not given: the % may be the effect or the level left
Aspergillus terreus [12] = test: Antifungal activity against germinated Aspergillus terreus assessed as absence of visual fungal growth at 128 ug/mL; type: functional, organism-based
Aspergillus terreus [13] = test: Decrease in nongerminated Aspergillus terreus metabolism assessed as metabolic activity at 128 ug/mL after 48 hrs by XTT assay; type: functional; parameters: scale not given: the % may be the effect or the level left
Aspergillus flavus [14] = test: Induction of maximal metabolic inhibition in germinated Aspergillus flavus assessed as minimal metabolic activity Ymin after 2 hrs by XTT assay; type: functional; parameters: scale not given: the % may be the effect or the level left
Aspergillus fumigatus [15] = test: Induction of maximal metabolic inhibition in germinated Aspergillus fumigatus assessed as minimal metabolic activity Ymin after 2 hrs by XTT assay; type: functional; parameters: scale not given: the % may be the effect or the level left
Aspergillus flavus [16] = test: Decrease in germinated Aspergillus flavus metabolism assessed as metabolic activity at 128 ug/mL after 48 hrs by XTT assay; type: functional; parameters: scale not given: the % may be the effect or the level left
Aspergillus terreus [17] = test: Decrease in germinated Aspergillus terreus metabolism assessed as metabolic activity at 128 ug/mL after 48 hrs by XTT assay; type: functional; parameters: scale not given: the % may be the effect or the level left
Aspergillus flavus [18] = test: Effect on Aspergillus flavus metabolic activity assessed number of twofold drug dilutions required for germinated fungal metabolic activity to nongerminated fungal metabolic activity; type: functional
Aspergillus flavus [19] = test: Induction of maximal metabolic inhibition in nongerminated Aspergillus flavus assessed as minimal metabolic activity Ymin after 2 hrs by XTT assay; type: functional; parameters: scale not given: the % may be the effect or the level left
Aspergillus flavus [20] = test: Antifungal activity against germinated Aspergillus flavus assessed as lowest drug concentration that produced short, stubby and highly branched hyphae after 48 hrs by microscopic analysis; type: functional; conditions: read-out: MEC
Aspergillus terreus [21] = test: Antifungal activity against nongerminated Aspergillus terreus assessed as absence of visual fungal growth at 128 ug/mL; type: functional, organism-based
Aspergillus flavus [22] = test: Decrease in nongerminated Aspergillus flavus metabolism assessed as metabolic activity at 128 ug/mL after 48 hrs by XTT assay; type: functional; parameters: scale not given: the % may be the effect or the level left
Aspergillus terreus [23] = test: Antifungal activity against germinated Aspergillus terreus assessed as lowest drug concentration that produced short, stubby and highly branched hyphae after 48 hrs by microscopic analysis; type: functional; conditions: read-out: MEC
Aspergillus terreus [24] = test: Effect on germinated Aspergillus terreus metabolic activity assessed as drug concentration at which fungal metabolic activity occurs after 2 hrs by XTT assay; type: functional
Aspergillus terreus [25] = test: Decrease in germinated Aspergillus terreus metabolism assessed as metabolic activity at 64 ug/mL after 48 hrs by XTT assay; type: functional; parameters: scale not given: the % may be the effect or the level left
Aspergillus terreus [26] = test: Induction of maximal metabolic inhibition in germinated Aspergillus terreus assessed as minimal metabolic activity Ymin after 2 hrs by XTT assay; type: functional; parameters: scale not given: the % may be the effect or the level left
Aspergillus flavus [27] = test: Effect on nongerminated Aspergillus flavus metabolic activity assessed as drug concentration at which fungal metabolic activity occurs after 2 hrs by XTT assay; type: functional
Aspergillus terreus [28] = test: Antifungal activity against nongerminated Aspergillus terreus assessed as lowest drug concentration that produced short, stubby and highly branched hyphae after 48 hrs by microscopic analysis; type: functional; conditions: read-out: MEC
Aspergillus flavus [29] = test: Decrease in nongerminated Aspergillus flavus metabolism assessed as metabolic activity at 64 ug/mL after 48 hrs by XTT assay; type: functional; parameters: scale not given: the % may be the effect or the level left
Aspergillus fumigatus [30] = test: Antifungal activity against nongerminated Aspergillus fumigatus assessed as lowest drug concentration that produced short, stubby and highly branched hyphae after 48 hrs by microscopic analysis; type: functional; conditions: read-out: MEC
Aspergillus terreus [31] = test: Effect on Aspergillus terreus metabolic activity assessed number of twofold drug dilutions required for germinated fungal metabolic activity to nongerminated fungal metabolic activity; type: functional
Aspergillus terreus [32] = test: Effect on nongerminated Aspergillus terreus metabolic activity assessed as drug concentration at which fungal metabolic activity occurs after 2 hrs by XTT assay; type: functional
Aspergillus flavus [33] = test: Ratio of log2 of MEC for germinated Aspergillus flavus to log2 of MEC for nongerminated Aspergillus flavus; type: functional
Aspergillus flavus [34] = test: Decrease in germinated Aspergillus flavus metabolism assessed as metabolic activity at 64 ug/mL after 48 hrs by XTT assay; type: functional; parameters: scale not given: the % may be the effect or the level left
Aspergillus fumigatus [35] = test: Decrease in nongerminated Aspergillus fumigatus metabolism assessed as metabolic activity at 128 ug/mL after 48 hrs by XTT assay; type: functional; parameters: scale not given: the % may be the effect or the level left
Aspergillus flavus [36] = test: Effect on germinated Aspergillus flavus metabolic activity assessed as drug concentration at which fungal metabolic activity occurs after 2 hrs by XTT assay; type: functional
Aspergillus fumigatus [37] = test: Ratio of log2 of MEC for germinated Aspergillus fumigatus to log2 of MEC for nongerminated Aspergillus fumigatus; type: functional
Aspergillus flavus [38] = test: Antifungal activity against germinated Aspergillus flavus assessed as absence of visual fungal growth at 128 ug/mL; type: functional, organism-based
Aspergillus terreus [39] = test: Ratio of log2 of MEC for germinated Aspergillus terreus to log2 of MEC for nongerminated Aspergillus terreus; type: functional
Aspergillus fumigatus [40] = test: Effect on nongerminated Aspergillus fumigatus metabolic activity assessed as drug concentration at which fungal metabolic activity occurs after 2 hrs by XTT assay; type: functional
Aspergillus fumigatus [41] = test: Decrease in nongerminated Aspergillus fumigatus metabolism assessed as metabolic activity at 64 ug/mL after 48 hrs by XTT assay; type: functional; parameters: scale not given: the % may be the effect or the level left
Aspergillus fumigatus [42] = test: Effect on germinated Aspergillus fumigatus metabolic activity assessed as drug concentration at which fungal metabolic activity occurs after 2 hrs by XTT assay; type: functional

**Q.** For `CC[C@H](C)C[C@H](C)CCCCCCCCC(=O)N[C@H]1C[C@@H](O)[C@@H](NCCN)NC(=O)[C@@H]2[C@@H](O)CCN2C(=O)[C@H]([C@H](O)CCN)NC(=O)[C@H]([C@H](O)[C@@H](O)c2ccc(O)cc2)NC(=O)[C@@H]2C[C@@H](O)CN2C(=O)[C@H]([C@@H](C)O)NC1=O` [CASPOFUNGIN], which Activity (Aspergillus fumigatus [1]) is on record?
**A.** Its Activity is “Active”.

**Q.** And the Ratio (Aspergillus fumigatus [2])?
**A.** The Ratio was 0.96.

**Q.** What about the minimal effective concentration (Aspergillus fumigatus [3]) of the same compound?
**A.** Its minimal effective concentration is 1 µg/mL.

**Q.** What about the Activity (Aspergillus terreus [4]) of the same compound?
**A.** The Activity was 34%.

**Q.** What about the minimal effective concentration (Aspergillus flavus [5]) of the same compound?
**A.** The minimal effective concentration was 1 µg/mL.

**Q.** And the Activity (Aspergillus fumigatus [6])?
**A.** The Activity was under 5%.

**Q.** And the Activity (Aspergillus fumigatus [7])?
**A.** The Activity was “Active”.

**Q.** What about the Activity (Aspergillus fumigatus [8]) of the same compound?
**A.** The Activity was 26%.

**Q.** And the Activity (Aspergillus fumigatus [9])?
**A.** The Activity was under 5%.

**Q.** And the Activity (Aspergillus flavus [10])?
**A.** Its Activity is “Active”.

**Q.** And the Activity (Aspergillus terreus [11])?
**A.** Its Activity is under 5%.

**Q.** And the Activity (Aspergillus terreus [12])?
**A.** Its Activity is “Active”.

**Q.** What about the Activity (Aspergillus terreus [13]) of the same compound?
**A.** The Activity was under 5%.

**Q.** And the Activity (Aspergillus flavus [14])?
**A.** Its Activity is 21%.

**Q.** What about the Activity (Aspergillus fumigatus [15]) of the same compound?
**A.** The Activity was 26%.

**Q.** And the Activity (Aspergillus flavus [16])?
**A.** The Activity was under 5%.

**Q.** What about the Activity (Aspergillus terreus [17]) of the same compound?
**A.** Its Activity is under 5%.

**Q.** And the Ratio (Aspergillus flavus [18])?
**A.** Its Ratio is 0.43.

**Q.** What about the Activity (Aspergillus flavus [19]) of the same compound?
**A.** Its Activity is 17%.

**Q.** And the minimal effective concentration (Aspergillus flavus [20])?
**A.** The minimal effective concentration was 1 µg/mL.

**Q.** What about the Activity (Aspergillus terreus [21]) of the same compound?
**A.** Its Activity is “Active”.

**Q.** What about the Activity (Aspergillus flavus [22]) of the same compound?
**A.** Its Activity is under 5%.

**Q.** What about the minimal effective concentration (Aspergillus terreus [23]) of the same compound?
**A.** Its minimal effective concentration is 1 µg/mL.

**Q.** What about the EC5 (Aspergillus terreus [24]) of the same compound?
**A.** Its EC5 is 1.06 µg/mL.

**Q.** What about the Activity (Aspergillus terreus [25]) of the same compound?
**A.** Its Activity is under 5%.

**Q.** What about the Activity (Aspergillus terreus [26]) of the same compound?
**A.** Its Activity is 35%.

**Q.** And the EC5 (Aspergillus flavus [27])?
**A.** Its EC5 is 0.64 µg/mL.

**Q.** And the minimal effective concentration (Aspergillus terreus [28])?
**A.** The minimal effective concentration was 0.5 µg/mL.

**Q.** What about the Activity (Aspergillus flavus [29]) of the same compound?
**A.** Its Activity is under 5%.

**Q.** And the minimal effective concentration (Aspergillus fumigatus [30])?
**A.** Its minimal effective concentration is 1 µg/mL.

**Q.** What about the Ratio (Aspergillus terreus [31]) of the same compound?
**A.** Its Ratio is 1.12.

**Q.** And the EC5 (Aspergillus terreus [32])?
**A.** The EC5 was 0.65 µg/mL.

**Q.** What about the Ratio (Aspergillus flavus [33]) of the same compound?
**A.** The Ratio was 0.

**Q.** And the Activity (Aspergillus flavus [34])?
**A.** Its Activity is under 5%.

**Q.** And the Activity (Aspergillus fumigatus [35])?
**A.** Its Activity is under 5%.

**Q.** What about the EC5 (Aspergillus flavus [36]) of the same compound?
**A.** The EC5 was 0.87 µg/mL.

**Q.** And the Ratio (Aspergillus fumigatus [37])?
**A.** The Ratio was 0.

**Q.** What about the Activity (Aspergillus flavus [38]) of the same compound?
**A.** Its Activity is “Active”.

**Q.** What about the Ratio (Aspergillus terreus [39]) of the same compound?
**A.** Its Ratio is 1.

**Q.** And the EC5 (Aspergillus fumigatus [40])?
**A.** Its EC5 is 0.67 µg/mL.

**Q.** What about the Activity (Aspergillus fumigatus [41]) of the same compound?
**A.** Its Activity is under 5%.

**Q.** What about the EC5 (Aspergillus fumigatus [42]) of the same compound?
**A.** Its EC5 is 1.2 µg/mL.
